Experimental data reported in ChEMBL document CHEMBL1143527, “Design, synthesis, and activity of achiral analogs of 2-quinolones and indoles as non-thiol farnesyltransferase inhibitors” (Bioorg Med Chem Lett, 2005).

Key:
[1] = molecular target: T1, Geranylgeranyl transferase type I (Bos taurus, UniProt P29702+Q5EAD5); assay: Inhibition of bovine geranylgeranyl transferase; format: protein-complex assay
[2] = molecular target: T2, Protein farnesyltransferase (Mus musculus) (UniProt Q61239+Q8K2I1); assay: (§1) Percent inhibition of H-ras processing in transformed NIH3T3 cells at 100 nM; format: functional, cell-based
[3] = molecular target: T3, Protein farnesyltransferase (Bos taurus, UniProt P29702+P49355); assay: Inhibition of bovine Farnesyltransferase; format: protein-complex assay
[4] = molecular target: T2, Protein farnesyltransferase (Mus musculus); assay: as §1; format: functional, cell-based; remark: listed apart in the source
[5] = molecular target: T3, Protein farnesyltransferase; assay: Inhibition of bovine farnesyltransferase; format: protein-complex assay
[6] = molecular target: T1, Geranylgeranyl transferase type I; assay: Inhibition of bovine Geranylgeranyltransferase; format: protein-complex assay
[7] = molecular target: Protein farnesyltransferase (Mus musculus, UniProt Q61239+Q8K2I1); assay: Inhibition of H-ras processing in transformed NIH3T3 cells; format: functional, cell-based
[8] = molecular target: T2, Protein farnesyltransferase (Mus musculus); assay: Percent inhibition of H-ras processing in transformed NIH3T3 cells at 1000 nM; format: functional, cell-based

Row | Compound | IC50 [1] [nM] | inhibition [4] [%] | IC50 [5] [nM] | other results
1 | Cn1c(=O)cc(-c2cccc(Cl)c2)c2cc(Cn3cncc3Cc3ccc(C#N)cc3)ccc21 | > 10000 | 57 | 7.2 | inhibition [2]: 57%; IC50 [3]: 4.7 nM; IC50 [6]: 17000 nM
2 | Cn1c(=O)cc(-c2cccc(Cl)c2)c2cc(C(=O)c3cncn3Cc3ccc(C#N)cc3)ccc21 | < 10000 | 30 | 29 | 
3 | N#Cc1ccc(Cn2cncc2Cn2ccc3cc(-c4cccc5ccccc45)ccc32)cc1 | 270 |  | 0.93 | EC50 [7]: 5.7 nM
4 | Cn1c(=O)cc(-c2cccc(Cl)c2)c2cc(C(O)c3cncn3Cc3ccc(C#N)cc3)ccc21 (configuration not stated) | 17000 | 32 | 4.7 | 
5 | Cn1c(=O)cc(-c2cccc(Cl)c2)c2cc(Cn3cncc3COc3ccc(C#N)cc3)ccc21 |  |  | > 1000 | 
6 | Cn1cncc1C(OCc1ccc2c(c1)c(-c1cccc(Cl)c1)cc(=O)n2C)c1ccc(C#N)cc1 (configuration not stated) |  |  | 80 | 
7 | Cn1c(=O)cc(-c2cccc(Cl)c2)c2cc(C(N)c3cncn3Cc3ccc(C#N)cc3)ccc21 (configuration not stated) | 22000 | 42 | 3.8 | 
8 | Cn1c(=O)cc(-c2cccc(Cl)c2)c2cc(Cn3cncc3Cn3ccc(C#N)c3)ccc21 |  |  | 560 | 
9 | Cn1c(=O)cc(-c2cccc(Cl)c2)c2cc(Cn3cncc3Cc3ccc(C#N)cc3)cnc21 | 4000 | 39 | 10 | 
10 | Cn1c(=O)cc(-c2cccc(Cl)c2)c2cc(C(NC=O)c3cncn3Cc3ccc(C#N)cc3)ccc21 (configuration not stated) | > 10000 | 28 | 2.1 | 
11 | N#Cc1ccc(Cn2cncc2Cn2ccc3c(C#N)c(-c4cccc5ccccc45)ccc32)cc1 | 110 |  | 0.15 | EC50 [7]: 2.1 nM
12 | NC(=O)N1CCC(CC(=O)N2CCC([C@H]3c4ncc(Br)cc4CCc4cc(Cl)cc(Br)c43)CC2)CC1 [LONAFARNIB] | > 10000 | 100 |  | 
13 | Cn1c(=O)cc(-c2cccc(Cl)c2)c2cc(Cn3cncc3COCc3ccc(C#N)cc3)ccc21 |  |  | > 1000 | 
14 | N#Cc1cn(Cc2cncn2Cc2ccc3c(c2)OCO3)cc1-c1cccc2ccccc12 | 520 |  | 6.1 | inhibition [8]: 68%
15 | Cn1cncc1[C@@](N)(c1ccc(Cl)cc1)c1ccc2c(c1)c(-c1cccc(Cl)c1)cc(=O)n2C |  | 1.6 |  | 
16 | Cn1c(=O)cc(-c2cccc(Cl)c2)c2cc(Cn3cncc3Cn3ccc(C(=O)N4CCOCC4)c3)ccc21 |  |  | > 1000 | 
17 | Cn1c(=O)cc(-c2cccc(Cl)c2)c2cc(COCc3cncn3Cc3ccc(C#N)cc3)ccc21 |  |  | 89 | 
18 | N#Cc1ccc(Cn2cncc2Cn2cc(C#N)c(-c3cccc4ccccc34)c2)cc1 | 140 |  | 0.58 | EC50 [7]: 34 nM
19 | Cn1c(=O)cc(-c2cccc(Cl)c2)c2cc(Cn3cncc3C(O)c3ccc(C#N)cc3)ccc21 (configuration not stated) | > 10000 |  | 44 | 
20 | Cn1c(=O)cc(-c2cccc(Cl)c2)c2cc(Cn3cncc3Cn3ccc(=O)cc3)ccc21 |  |  | > 1000 | 
21 | CC(=O)OC(c1ccc(C#N)cc1)c1cncn1Cc1ccc2c(c1)c(-c1cccc(Cl)c1)cc(=O)n2C (configuration not stated) | > 1000 |  | > 1000 | 
